Data set [1] concerns FaDu. Briefly: Antiproliferative activity against human FaDu cells assessed as inhibition of cell viability incubated for 72 hrs by ATPlite assay. It is filed as functional, cell-based. (Cellular ATP, detected with luciferase, serves as a proxy for viable cell number.)
Data set [2] concerns the target T1, METTL3/METTL14 (Homo sapiens, UniProt Q86U44). Briefly: Inhibition of METTL3/METTL14-mediated m6A mRNA expression in human Kasumi 1 cells incubated for 24 hrs by LC-MS/MS analysis. It is filed as cell-based.
The target of data set [3] is T1, METTL3/METTL14. As to the kind of experiment: Inhibition of METTL3/METTL14-mediated m6A mRNA expression in human A549 cells incubated for 24 hrs by LC-MS/MS analysis. It is filed as cell-based.
For data set [4], the system named is A549. Briefly: Antiproliferative activity against human A549 cells assessed as inhibition of cell viability incubated for 72 hrs by ATPlite assay. It is filed as functional, cell-based. The following applies: A549, 72 h.
Data set [5] can be described thus: Unbound AUC in Sprague-Dawley rat at 1 mg/kg/day, iv measured for 24 hrs by LC-MS/MS analysis. It is filed as ADME, organism-based. Conditions: in vivo.
The target in data set [6] is T1, METTL3/METTL14. Briefly: Inhibition of METTL3/METTL14-mediated m6A mRNA expression in human FaDu cells incubated for 24 hrs by LC-MS/MS analysis. It is filed as cell-based.
The test system of data set [7] is NCI-H1650. As to the kind of experiment: Growth inhibition of human NCI-H1650 cells spheroid model. It is filed as functional, cell-based.
The subject of data set [8] is Kasumi 1. Briefly: Antiproliferative activity against human Kasumi 1 cells assessed as inhibition of cell viability incubated for 72 hrs by ATPlite assay. Conditions: Kasumi 1, 72 h. It is filed as functional, cell-based.
In data set [9] the test system is MV4-11. As to the kind of experiment: Antiproliferative activity against human MV4-11 cells assessed as inhibition of cell viability incubated for 72 hrs by ATPlite assay. It is filed as functional, cell-based. The following applies: MV4-11, 72 h.
Data set [10] can be described thus: Unbound AUC in mouse at 30 mg/kg, ip. The following applies: in vivo. It is filed as ADME, organism-based.
A short description of data set [11]: In vivo inhibition of METTL3/METTL14-mediated m6A mRNA expression in PBMC of rat at 3 to 30 mg/kg relative to control. It is filed as functional. Conditions: dose 3-30 mg/kg.
A short description of data set [12]: Lipophilicity, logD of compound in 1-octanol/PBS at pH 7.4 incubated for 24 hrs by HPLC analysis. It is filed as physicochemical.
In data set [13] the test system is Calu-6. Briefly: Antiproliferative activity against human Calu-6 cells assessed as inhibition of cell viability incubated for 72 hrs by ATPlite assay. It is filed as functional, cell-based. Conditions: Calu-6, 72 h.
Data set [14] deals with T1, METTL3/METTL14. As to the kind of experiment: Inhibition of METTL3/METTL14-mediated m6A mRNA expression in human SK-OV-3 cells incubated for 24 hrs by LC-MS/MS analysis. It is filed as cell-based.
Data set [15] deals with T1, METTL3/METTL14. As to the kind of experiment: Displacement of [3H]-SAM from METTL3/METTL14 (unknown origin) using 5'biotinylated-UACACUCGAUCUGGACUAAAGGUGCUC-3' RNA as substrate preincubated for 10 mins followed by substrate/[3H]-SAM addition measured after 90 mins by SPA. It is filed as protein-complex assay. A general note: In a radioligand displacement assay an active substance lowers the binding of a labelled ligand.

In data set [16] the test system is Rattus norvegicus. Briefly: In vivo inhibition of METTL3/METTL14-mediated m6A mRNA expression in PBMC of rat. It is filed as functional, organism-based. Conditions: dose 3-30 mg/kg.
Data set [17] deals with T1, METTL3/METTL14. Briefly: Inhibition of METTL3/METTL14-mediated m6A mRNA expression in human Calu-6 cells incubated for 24 hrs by LC-MS/MS analysis. It is filed as cell-based.
Data set [18] concerns SK-OV-3. As to the kind of experiment: Antiproliferative activity against human SK-OV-3 cells assessed as inhibition of cell viability incubated for 72 hrs by ATPlite assay. It is filed as functional, cell-based. The following applies: SK-OV-3, 72 h.
Data set [19] addresses T1, METTL3/METTL14. Briefly: Inhibition of METTL3/METTL14-mediated m6A mRNA expression in human MV4-11 cells incubated for 24 hrs by LC-MS/MS analysis. It is filed as cell-based.
Data set [20] relates to Caov-3 cell line. As to the kind of experiment: Antiproliferative activity against human Caov-3 cells assessed as inhibition of cell viability incubated for 72 hrs by ATPlite assay. It is filed as functional, cell-based. Conditions: Caov-3, 72 h.

T1 sequence (Q86U44 whole entry): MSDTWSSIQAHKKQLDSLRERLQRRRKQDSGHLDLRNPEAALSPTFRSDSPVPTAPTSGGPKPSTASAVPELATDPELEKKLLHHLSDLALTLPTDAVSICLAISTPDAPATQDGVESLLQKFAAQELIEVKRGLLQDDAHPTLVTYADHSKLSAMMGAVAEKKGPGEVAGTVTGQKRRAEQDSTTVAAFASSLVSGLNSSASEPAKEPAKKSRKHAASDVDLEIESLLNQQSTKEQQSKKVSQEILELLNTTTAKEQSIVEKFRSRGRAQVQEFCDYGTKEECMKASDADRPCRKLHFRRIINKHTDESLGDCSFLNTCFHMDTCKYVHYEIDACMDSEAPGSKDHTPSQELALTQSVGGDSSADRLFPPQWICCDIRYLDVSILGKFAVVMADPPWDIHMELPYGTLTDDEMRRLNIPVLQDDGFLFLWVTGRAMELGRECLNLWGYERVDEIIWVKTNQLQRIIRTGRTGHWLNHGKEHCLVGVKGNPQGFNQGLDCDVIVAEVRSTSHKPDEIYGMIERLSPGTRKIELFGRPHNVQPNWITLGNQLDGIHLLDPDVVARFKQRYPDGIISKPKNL
T1 sequence (Q9HCE5 whole entry, further chain): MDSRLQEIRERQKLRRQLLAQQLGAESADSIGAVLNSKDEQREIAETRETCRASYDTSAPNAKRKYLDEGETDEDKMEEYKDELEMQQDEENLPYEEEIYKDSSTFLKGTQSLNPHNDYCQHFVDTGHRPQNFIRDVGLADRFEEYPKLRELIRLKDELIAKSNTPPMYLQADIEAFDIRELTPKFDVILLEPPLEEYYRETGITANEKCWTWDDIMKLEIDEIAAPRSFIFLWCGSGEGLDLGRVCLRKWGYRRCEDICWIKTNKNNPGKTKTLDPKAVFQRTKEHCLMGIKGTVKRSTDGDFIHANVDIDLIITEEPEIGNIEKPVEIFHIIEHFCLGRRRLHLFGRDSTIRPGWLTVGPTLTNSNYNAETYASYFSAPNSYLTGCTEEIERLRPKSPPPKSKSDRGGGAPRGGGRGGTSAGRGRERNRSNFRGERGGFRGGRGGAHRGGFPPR

In the case of `O=C(NCc1ccc2cc(CNCC3CCC3)[nH]c2c1)c1cc(=O)n2ccccc2n1`, the IC50 is 2210 nM in data set [1]; 138 nM in data set [2]; 264 nM in data set [3]; above 5000 nM in data set [4]; 331 nM in [6]; 2060 nM in data set [7]. Also, the IC50 was determined as 1160 nM in data set [8]; 7630 nM in data set [9]; 1140 nM in data set [13]; 134 nM in data set [14]; 4 nM in data set [15]; 169 nM in data set [17]. For the same compound, the values for the IC50 in data set [18], in [19] and in [20] were 371 nM, 182 nM and 563 nM, respectively. Moreover, the fAUC was determined as 4.6 µM·min in data set [5] and 298.1 µM·min in data set [10]. Further, the “inhibition (INH)” value in data set [11] is given as “<=61%”. For the same compound, in [12], the logD at 24 h is 1.9. The inhibition entry in data set [16] is “Dose-dependent-effect”.

For orientation: IC50 means the midpoint of a concentration-inhibition curve. A word on the logD: it is the decadic logarithm of the distribution of all forms, ionised or not, between an organic phase and buffer at a given pH. Lower therefore signals a more hydrophilic compound.

For the origin of these results see ChEMBL document CHEMBL6121062, “Discovery, Optimization, and Preclinical Pharmacology of EP652, a METTL3 Inhibitor with Efficacy in Liquid and Solid Tumor Models” (J Med Chem, 2025).
